This is an account of results in patent US20200384064A1, “COMPOSITIONS AND METHODS USING HIGH PROTEIN FOR INDUCTION OF AUTOPHAGY” (SOCIETE DES PRODUiTS NESTLE S.A., priority 2017, published 2020).

The test system of this experiment is LC3 positive punctae in embryo muscles. Briefly: LC3 positive punctae count in muscles of transgenic LC3-ZsGreen zebrafish embryos. The class given is in vivo. On the procedure: Autophagy was measured by counting the number of LC3 positive punctae in embryo muscles, normalized by total area. A zebrafish autophagy reporter has been generated by stable expression of the LC3 protein fused to ZsGreen under the control of a skeletal muscle specific promoter, hereafter LC3-ZsGreen. Embryos from outcrossed transgenic zebrafish have been raised at 28° C. under standard laboratory conditions and have been treated at 48 h post-fertilization in 96 well plates (n=24). After 16 hours of treatment embryos were anesthetized with 0.016% tricaine and imaged with ImageXpress confocal system at 20× magnification (Molecular Devices). After acquisition embryos were further treated with NH4Cl 100 mM for 4 h to block LC3 degradation and imaged again. Z stack images were captured for each embryo and maximal projection images were produced. Number of LC3 punctae have been calculated with MetaXpress software (Moleculare Devices) and normalized by fish area.

As to `CC(C)[C@H](N)C(=O)O` [Valine, valine], under “500 μM in fish water, 16 hours of treatment from 48 h post-fertilization”, the “Number of LC3 positive punctae in embryo muscles, normalized by total area” value is “induced an increase of LC3 positive punctae”. The “Autophagic flux (LC3 punctae in presence of the lysosomal inhibitor NH4Cl)” value (500 μM, then NH4Cl 100 mM for 4 h) was “increase of autophagic flux”.
